Reference: ChEMBL document CHEMBL5120884, “Complex Flavanones from Cryptocarya metcalfiana and Structural Revision of Oboflavanone A” (J Nat Prod, 2022)

System: HCT-116
Assay: Cytotoxicity against human HCT-116 cells incubated for 48 hrs by MTT assay
Type: functional, cell-based
Conditions: HCT-116, 48 h

SMILES	IC50
COC(=O)CCC[C@@H]1C[C@@H]2C[C@@](CCc3ccccc3)(Oc3cc4c(c(O)c32)C(=O)C[C@@H](c2ccccc2)O4)O1	> 10 µM
O=C1C=CC[C@H](C[C@@H]2C[C@@H]3C[C@@](CCc4ccccc4)(Oc4cc5c(c(O)c43)C(=O)C[C@@H](c3ccccc3)O5)O2)O1	6.1 µM
COC(=O)CCC[C@@H]1C[C@@H]2C[C@@](CCc3ccccc3)(Oc3cc4c(c(O)c32)C(=O)C[C@H](c2ccccc2)O4)O1	> 10 µM
O=C1C=CC[C@H](C[C@@H]2C[C@@H]3C[C@@](CCc4ccccc4)(Oc4cc5c(c(O)c43)C(=O)C[C@H](c3ccccc3)O5)O2)O1	5.8 µM
O=C(O)CCC[C@@H]1C[C@@H]2C[C@@](/C=C/c3ccccc3)(Oc3cc4c(c(O)c32)C(=O)C[C@H](c2ccccc2)O4)O1	> 10 µM
O=C1C=CC[C@H](C[C@@H]2C[C@@H]3C[C@@](/C=C/c4ccccc4)(Oc4cc5c(c(O)c43)C(=O)C[C@@H](c3ccccc3)O5)O2)O1	7.2 µM
O=C(O)CCC[C@@H]1C[C@@H]2C[C@@](/C=C/c3ccccc3)(Oc3cc4c(c(O)c32)C(=O)C[C@@H](c2ccccc2)O4)O1	> 10 µM
O=C1CCC[C@@H]2C[C@H](C[C@](O)(/C=C/c3ccccc3)O2)c2c(cc(O)c3c2O[C@H](c2ccc(O)cc2)CC3=O)O1	4.2 µM
O=C1CCC[C@@H]2C[C@H](C[C@](O)(/C=C/c3ccccc3)O2)c2c(cc(O)c3c2O[C@@H](c2ccc(O)cc2)CC3=O)O1	4.5 µM
